# Measured values published in patent US11311560B2, “Cyclic plasmenylethanolamines” (MED-LIFE DISCOVERIES LP, priority 2017, dated 2022).
# Assays:
# Pex7 hypomorph/null mice = assay: Open field test after 4 weeks oral treatment; format: in vivo, mouse
# Description: The Pex7 hypomorph/null model is a hypomorphic (B6;129S6-Pex7^tm2.3Brav/s9) mouse model on a mixed background (C57BL/6NCrl and 129S6/SvEvTac). The hypomorphic allele in Pex7 hypomorph/null was generated by inserting an inverse neo cassette into intron 2 and lox P sites surrounding exon 3. The Pex7 null allele was generated using (B6.C-Tg(cmv-cre)1Cgn/J) mouse. The Pex7 hypomorph/null mouse model has 90% survival, 0.016-0.257% of wild type Pex7 mRNA levels and 20-30% plasmalogen levels Pex7 hypomoprh/null mice (3-4 months); and wild-type animals, males and females included in treatments and behavioral tests. Pex7 hypomorph/null mice were randomly assigned, after a baseline open field test, into 3 treatment groups: PPI-1040, PPI-1011, and vehicle controls, n=6 mice per group). PPI-1011 or PPI-1040 at 50 mg/kg was given by oral gavage 5 days per week (Monday-Friday) for 4 weeks. During the treatment period, animals were weighed weekly and observed for signs of distress. The open field test was performed at the end of treatment. To avoid selection bias, data analysis was performed only at the study end. Animals were sacrificed after a 24-hour post the last dose.
# The open field test is a behavioral test used to evaluate the general locomotor activity, exploratory and anxiety-like behaviour of mice in response to a novel environment. The animal is placed inside a custom made square, gray acrylic box measuring 40×40×40 cm and allowed to move freely for 5 minutes while being recorded by an overhead camera (camera model). The footage was analyzed by an automated tracking system (Any-maze Video Tracking Software, Stoelting Co, Wood Dale, Ill., USA), for total distance traveled (meters) & activity (mobility in seconds) time. The total distance traveled is the total distance that animal traveled during the test and the activity measures the amount of time the animal was active during the test.
# [1] = system: wild-type mouse hippocampal brain slices; assay: Long term potentiation (LTP) on multi-electrode array; format: cell-based; settings: 0.5 μM, monitored for 60 mins, vs vehicle (0.2% DMSO)
# Method: It is hypothesized that brain plasmalogen levels affect neurotransmission. Accordingly, in this study, wild-type mouse hippocampal brain slices were incubated in artificial cerebro-spinal fluid containing either vehicle or PPI-1040. The slices were incubated on a multi-electrode array (MEA) with electrodes spaced 100 μm apart. A single electrode was selected to stimulate Schaffer collaterals cells which triggered field excitatory post-synaptic potential (fEPSP) in the stratum radiatum. After 10 minutes of control recording, in the presences of either PPI-1040 or vehicle, long term potentiation (LTP) was induced by a single train of 10 bursts composed of 4 stimuli at 100 Hz each with a 200 millisecond interval between.
# [2] = Oral bioavailability study with 13C-labeled PPI-1050: labeled glycerolipids in serum; format: in vivo, mouse; settings: wild-type C57Bl/6 mice
# Method: A ^13C-labeled version of PPI-1040, called PPI-1050, was generated to evaluate the ability of the intact compound to cross the gut boundary and enter the bloodstream intact. PPI-1050 contains carbon-13 labels on the three glycerol carbons and 3 carbons of the sn-1 palmitic acid. Wild-type C57/Bl6 mice were treated with a single oral dose of 100 mg/kg PPI-1050 (formulated in Neobee-M5 with 0.1% thioglycerol) or vehicle. Animals were then sacrificed and blood harvested by cardiac puncture at 1, 3 and 6 hours post-treatment (n=3). Serum was then analyzed for presence of incorporation of the label into glycerolipids. Serum extraction was performed on 20 μL aliquots in 1.4 ml Thermo matrix tubes. […] A 100 μL aliquot of the ethyl acetate layer was analyzed using FI-MS/MS on a API4000™ mass spectrometer (Applied Biosystems) coupled with Agilent 1100 HPLC pump and auto sampler. […] The parent PlsEtn mass was determined by incorporating the intact number of 13C labels in the predicted parent together with the corresponding daughter ion (sn2 fatty acid loss) to obtain the quantitative MS/MS transition pair. To confirm the ethanolamine group remained intact upon absorption we also analyzed serum for the presence of labeled alkyl-acyl and vinyl-acyl glycerols using FI-MS/MS analysis in positive mode. All transitions measured can be found in Table 1 below. […]
# [3] = 50 mg/kg oral gavage, 5 days per week, 5 minutes test
smiles,measurement,setting,value
"CC/C=C\C/C=C\C/C=C\C/C=C\C/C=C\C/C=C\CCC(=O)OC(CO/C=C\CCCCCCCCCCCCCC)COP1(=O)NCCO1 (stereo not drawn) [PPI-1040, 1-(((Z)-hexadec-1-en-1-yl)oxy)-3-((2-oxido-1,3,2-oxazaphospholidin-2-yl)oxy)propan-2-yl (4Z,7Z,10Z,13Z,16Z,19Z)-docosa-4,7,10,13,16,19-hexaenoate]",open field: time active,Pex7 hypomorph/null mice; [3],significant decrease in activity and normalization of the hyperactive phenotype
same,open field: total distance traveled,Pex7 hypomorph/null mice; [3],significant decrease in activity and normalization of the hyperactive phenotype
same,hyperactivity phenotype,"Pex7 hypomorph/null mice; 50 mg/kg oral, p<0.05",significant improvement
same,long term potentiation (LTP) of fEPSP,[1],increased LTP compared to vehicle treated controls
same,oral bioavailability,[2]; single oral dose 100 mg/kg PPI-1050,orally bioavailable and crossed the gut lining intact
same,intact compound with closed phosphoethanolamine ring in serum,"[2]; single oral dose 100 mg/kg PPI-1050, 1, 3, 6 hours",not detectable in any samples
